This note sets out measurements from PubChem BioAssay (NCI).

Structures are written as SMILES.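 Compound exposure: 48 hours, 5 concentrations, 96-well plates. Definition used: TGI = concentration required for complete inhibition of growth.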

Test systems include A498 renal; ACHN renal; CCRF-CEM leukemia; COLO 205 colon; HCT-15 colon; KM12 colon; MCF7 breast; MDA-MB-435; NCI-H522 lung; OVCAR-5 ovarian; RXF 393 renal; SF-539 CNS; SK-OV-3 ovarian.
Holding throughout (test): NCI-60 cell line screen, 48 h

With `CCCCCCCCCCOCCOCCOCCOCCCCC(O)CCCCCCCC1=C[C@H](C)OC1=O` (stereo partly drawn), the TGI with A498 renal was determined as 26.5 µM; with ACHN renal, 36 µM; in the assay with CCRF-CEM leukemia it was 51.1 µM; in the assay on COLO 205 colon, 34.5 µM; in the assay on HCT-15 colon it was 23.9 µM; in the assay with KM12 colon, 23.9 µM. For the same molecule, the TGI stood at 20 µM with MCF7 breast; 28.2 µM with MDA-MB-435; 21.1 µM in the assay on NCI-H522 lung; 30.6 µM with OVCAR-5 ovarian; 23.5 µM with RXF 393 renal; 24.5 µM with SF-539 CNS. The TGI in the assay with SK-OV-3 ovarian came out at 41.4 µM.

With `CN(C)c1ccc(/C=C(\NC(=O)c2ccccc2)C(=O)Nc2cccc(C(=O)NCCCO)c2)cc1`, the TGI with A498 renal, in the assay with ACHN renal, in the assay with CCRF-CEM leukemia, in the assay on COLO 205 colon, in the assay on HCT-15 colon and with KM12 colon was > 100 µM throughout. In addition, the TGI in the assay with MCF7 breast, in the assay with MDA-MB-435, in the assay on NCI-H522 lung, in the assay with OVCAR-5 ovarian, in the assay with RXF 393 renal and in the assay on SF-539 CNS was > 100 µM in each case. Moreover, in the assay with SK-OV-3 ovarian, the TGI was > 100 µM.

`CC1=CC(=O)N(n2c(Cc3ccc(Cl)cc3)n[nH]c2=O)C1=O`: the TGI with A498 renal is > 100 µM; in the assay on ACHN renal, > 100 µM; in the assay on CCRF-CEM leukemia, 29.3 µM; in the assay on COLO 205 colon, > 100 µM; in the assay with HCT-15 colon, > 100 µM; in the assay with KM12 colon it was > 100 µM. Moreover, the TGI in the assay with MCF7 breast is > 100 µM; with MDA-MB-435, > 100 µM; in the assay with NCI-H522 lung, 35.7 µM; with OVCAR-5 ovarian, > 100 µM; with RXF 393 renal, 53.1 µM; in the assay on SF-539 CNS, > 100 µM. Also, the TGI in the assay with SK-OV-3 ovarian was > 100 µM.

In the case of `O=c1[nH]nc(Cc2ccccc2)n1/N=C/c1ccc([N+](=O)[O-])cc1`, the TGI in the assay with A498 renal, in the assay on ACHN renal, in the assay with CCRF-CEM leukemia, in the assay on COLO 205 colon, in the assay with HCT-15 colon and in the assay with KM12 colon was > 100 µM each time. In addition, the TGI with MCF7 breast, with MDA-MB-435, with NCI-H522 lung, with OVCAR-5 ovarian, in the assay with RXF 393 renal and in the assay with SF-539 CNS was > 100 µM throughout.

As for `CC1=N[C@@](C)(C2CC3C=CC2C3=O)COC1=O` (stereo partly drawn), the TGI with A498 renal, with ACHN renal, in the assay with CCRF-CEM leukemia, in the assay on COLO 205 colon, in the assay with KM12 colon and in the assay with MCF7 breast was > 100 µM in each case. The TGI in the assay on MDA-MB-435, in the assay on NCI-H522 lung, in the assay on OVCAR-5 ovarian, in the assay on RXF 393 renal, with SF-539 CNS and in the assay with SK-OV-3 ovarian was > 100 µM each time.

Consider `Cc1cn(C2CCN(CC3COC(C)(C)O3)O2)c(=O)[nH]c1=O` (stereo not drawn), for which the TGI with A498 renal, in the assay with ACHN renal, in the assay with CCRF-CEM leukemia, in the assay on COLO 205 colon, in the assay on HCT-15 colon and in the assay on KM12 colon was > 100 µM throughout. Also, the TGI in the assay with MCF7 breast, in the assay on MDA-MB-435, in the assay on NCI-H522 lung, with OVCAR-5 ovarian, in the assay with RXF 393 renal and with SF-539 CNS was > 100 µM each time. Besides, the TGI with SK-OV-3 ovarian was > 100 µM.

Regarding `CCCC(=O)OC[n+]1ccc(-c2c(COC(=O)NC(C)C)c(COC(=O)NC(C)C)c3n2CCC3)cc1`, the TGI in the assay with A498 renal, in the assay on ACHN renal, with CCRF-CEM leukemia, in the assay on COLO 205 colon, in the assay on HCT-15 colon and in the assay with KM12 colon was > 100 µM each time. For the same molecule, the TGI in the assay with MCF7 breast, in the assay on MDA-MB-435, in the assay on NCI-H522 lung, in the assay with OVCAR-5 ovarian, in the assay with RXF 393 renal and in the assay with SF-539 CNS was > 100 µM in each case. In addition, the TGI in the assay with SK-OV-3 ovarian was > 100 µM.

Turning to `COc1cc(CNc2c3ccccc3nc3ccccc23)cc(OC)c1OC`, the TGI with A498 renal was 7.71 µM; in the assay on ACHN renal, 14.4 µM; in the assay on CCRF-CEM leukemia it was > 23.2 µM; with COLO 205 colon, 7.14 µM; in the assay on HCT-15 colon it was 14 µM; with KM12 colon, 21.3 µM. In addition, the TGI is > 32.9 µM with MCF7 breast; 12.9 µM in the assay with MDA-MB-435; 11.6 µM with NCI-H522 lung; 14.6 µM in the assay on OVCAR-5 ovarian; 9.04 µM with RXF 393 renal; 15.7 µM in the assay with SF-539 CNS. In addition, in the assay with SK-OV-3 ovarian, the TGI worked out at 28.4 µM.

On to `Cc1cccc(C)c1N=Nc1ccc(O)c(CN(C)C)c1`, for which the TGI in the assay on A498 renal is > 100 µM; with ACHN renal it was > 100 µM; in the assay on CCRF-CEM leukemia, > 100 µM; in the assay on COLO 205 colon, 44.8 µM; with HCT-15 colon it was > 100 µM; in the assay with KM12 colon it was > 100 µM. The TGI in the assay on MCF7 breast was > 100 µM; in the assay on MDA-MB-435, > 100 µM; with NCI-H522 lung, > 100 µM; in the assay on OVCAR-5 ovarian, > 100 µM; with RXF 393 renal it was 46 µM; in the assay on SF-539 CNS, > 100 µM. In the assay on SK-OV-3 ovarian, the TGI is > 100 µM.

For the molecule `CCOC(=O)C1(N)CC1`, the TGI in the assay on A498 renal, in the assay with ACHN renal, in the assay on CCRF-CEM leukemia, with HCT-15 colon, in the assay on KM12 colon and in the assay on MCF7 breast was > 100 µM each time. Moreover, the TGI in the assay on MDA-MB-435, in the assay on NCI-H522 lung, in the assay on OVCAR-5 ovarian, in the assay on RXF 393 renal and with SF-539 CNS was > 100 µM in each case.

For `O=C1[C@@H](O)[C@@H]2CCCC[C@@]23CCCN13`, the TGI in the assay with A498 renal, in the assay with ACHN renal, in the assay with CCRF-CEM leukemia, with COLO 205 colon, in the assay on HCT-15 colon and in the assay on KM12 colon was > 100 µM in each case. Besides, the TGI with MCF7 breast, in the assay with MDA-MB-435, in the assay with NCI-H522 lung, with OVCAR-5 ovarian, with RXF 393 renal and in the assay on SK-OV-3 ovarian was > 100 µM in each case.
